Reference: patent publication US20230085307A1, “PYRIDAZINONE COMPOUND AND HERBICIDE” (NISSAN CHEMICAL CORPORATION, priority 2019, published 2023)

Columns and labels:
barnyard grass [1] = test: Test Example 3: herbicidal effect by foliage application, Wagner pot (Table 18, symbol H); type: in vivo, barnyard grass (Echinochloa crus-galli); settings: 320 g/ha
Procedure, shortened: (§1)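 Plants were sown in alluvial soil held under 0.1–0.5 cm standing water and grown 14 days in a greenhouse at 25–30 °C. An emulsifiable formulation, water-diluted to the set dose, was then sprayed onto the foliage, and effects were scored three weeks later using previously defined criteria.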

Chinese sprangletop = test: Test Example 3: herbicidal effect by foliage application, Wagner pot (Table 18, symbol D); type: in vivo, chinese sprangletop (Leptochloa chinensis); settings: 320 g/ha
Procedure, shortened: as §1

rice flat sedge = test: Test Example 3: herbicidal effect by foliage application, Wagner pot (Table 18, symbol E); type: in vivo, rice flat sedge (Cyperus iria); settings: 320 g/ha
Procedure, shortened: as §1

southern crabgrass [2] = test: Test Example 4: herbicidal effect by soil treatment (Table 19, symbol F); type: in vivo, southern crabgrass (Digitaria ciliaris); settings: amount of applied herbicide 320 g/ha
Procedure, shortened: (§2)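 Applied as a water-diluted emulsion, the compound was sprayed onto soil covering newly sown seeds. Evaluation came three weeks after application, in a greenhouse held at 25° C. to 30° C.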

green foxtail [3] = test: Test Example 4: herbicidal effect by soil treatment (Table 19, symbol G); type: in vivo, green foxtail (Setaria viridis); settings: amount of applied herbicide 320 g/ha
Procedure, shortened: as §2

barnyard grass [4] = test: Test Example 4: herbicidal effect by soil treatment (Table 19, symbol H); type: in vivo, barnyard grass (Echinochloa crus-galli); settings: amount of applied herbicide 320 g/ha
Procedure, shortened: as §2

wild oat [5] = test: Test Example 4: herbicidal effect by soil treatment (Table 19, symbol I); type: in vivo, wild oat (Avena fatua); settings: amount of applied herbicide 320 g/ha
Procedure, shortened: as §2

blackgrass [6] = test: Test Example 4: herbicidal effect by soil treatment (Table 19, symbol J); type: in vivo, blackgrass (Alopecurus myosuroides); settings: amount of applied herbicide 320 g/ha
Procedure, shortened: as §2

Italian ryegrass [7] = test: Test Example 4: herbicidal effect by soil treatment (Table 19, symbol K); type: in vivo, Italian ryegrass (Lolium multiflorum); settings: amount of applied herbicide 320 g/ha
Procedure, shortened: as §2

windgrass [8] = test: Test Example 4: herbicidal effect by soil treatment (Table 19, symbol L); type: in vivo, windgrass (Apera spica-venti); settings: amount of applied herbicide 320 g/ha
Procedure, shortened: as §2

velvetleaf [9] = test: Test Example 4: herbicidal effect by soil treatment (Table 19, symbol M); type: in vivo, velvetleaf (Abutilon theophrasti); settings: amount of applied herbicide 320 g/ha
Procedure, shortened: as §2

redroot pigweed [10] = test: Test Example 4: herbicidal effect by soil treatment (Table 19, symbol N); type: in vivo, redroot pigweed (Amaranthus retroflexus); settings: amount of applied herbicide 320 g/ha
Procedure, shortened: as §2

lambsquarters [11] = test: Test Example 4: herbicidal effect by soil treatment (Table 19, symbol O); type: in vivo, lambsquarters (Chenopodium album); settings: amount of applied herbicide 320 g/ha
Procedure, shortened: as §2

chickweed [12] = test: Test Example 4: herbicidal effect by soil treatment (Table 19, symbol P); type: in vivo, common chickweed (Stellaria media); settings: amount of applied herbicide 320 g/ha
Procedure, shortened: as §2

persian speedwell [13] = test: Test Example 4: herbicidal effect by soil treatment (Table 19, symbol R); type: in vivo, Persian speedwell (Veronica persica); settings: amount of applied herbicide 320 g/ha
Procedure, shortened: as §2

southern crabgrass [14] = test: Test Example 5: herbicidal effect by foliage application, plastic box (Table 20, symbol F); type: in vivo, southern crabgrass (Digitaria ciliaris); settings: 320 g/ha, foliage application after 14-day growth, evaluated three weeks after application
Procedure, shortened: (§3)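 Sow seeds spot-wise in sterilized diluvial soil; cover with ~1.5 cm soil. Grow 14 days in greenhouse, 25° C. to 30° C. Spray foliage with emulsion diluted to predetermined amount. Rate effect after 3 weeks.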

green foxtail [15] = test: Test Example 5: herbicidal effect by foliage application, plastic box (Table 20, symbol G); type: in vivo, green foxtail (Setaria viridis); settings: 320 g/ha, foliage application after 14-day growth, evaluated three weeks after application
Procedure, shortened: as §3

barnyard grass [16] = test: Test Example 5: herbicidal effect by foliage application, plastic box (Table 20, symbol H); type: in vivo, barnyard grass (Echinochloa crus-galli); settings: 320 g/ha, foliage application after 14-day growth, evaluated three weeks after application
Procedure, shortened: as §3

wild oat [17] = test: Test Example 5: herbicidal effect by foliage application, plastic box (Table 20, symbol I); type: in vivo, wild oat (Avena fatua); settings: 320 g/ha, foliage application after 14-day growth, evaluated three weeks after application
Procedure, shortened: as §3

blackgrass [18] = test: Test Example 5: herbicidal effect by foliage application, plastic box (Table 20, symbol J); type: in vivo, blackgrass (Alopecurus myosuroides); settings: 320 g/ha, foliage application after 14-day growth, evaluated three weeks after application
Procedure, shortened: as §3

Italian ryegrass [19] = test: Test Example 5: herbicidal effect by foliage application, plastic box (Table 20, symbol K); type: in vivo, Italian ryegrass (Lolium multiflorum); settings: 320 g/ha, foliage application after 14-day growth, evaluated three weeks after application
Procedure, shortened: as §3

windgrass [20] = test: Test Example 5: herbicidal effect by foliage application, plastic box (Table 20, symbol L); type: in vivo, windgrass (Apera spica-venti); settings: 320 g/ha, foliage application after 14-day growth, evaluated three weeks after application
Procedure, shortened: as §3

velvetleaf [21] = test: Test Example 5: herbicidal effect by foliage application, plastic box (Table 20, symbol M); type: in vivo, velvetleaf (Abutilon theophrasti); settings: 320 g/ha, foliage application after 14-day growth, evaluated three weeks after application
Procedure, shortened: as §3

redroot pigweed [22] = test: Test Example 5: herbicidal effect by foliage application, plastic box (Table 20, symbol N); type: in vivo, redroot pigweed (Amaranthus retroflexus); settings: 320 g/ha, foliage application after 14-day growth, evaluated three weeks after application
Procedure, shortened: as §3

lambsquarters [23] = test: Test Example 5: herbicidal effect by foliage application, plastic box (Table 20, symbol O); type: in vivo, lambsquarters (Chenopodium album); settings: 320 g/ha, foliage application after 14-day growth, evaluated three weeks after application
Procedure, shortened: as §3

chickweed [24] = test: Test Example 5: herbicidal effect by foliage application, plastic box (Table 20, symbol P); type: in vivo, common chickweed (Stellaria media); settings: 320 g/ha, foliage application after 14-day growth, evaluated three weeks after application
Procedure, shortened: as §3

persian speedwell [25] = test: Test Example 5: herbicidal effect by foliage application, plastic box (Table 20, symbol R); type: in vivo, Persian speedwell (Veronica persica); settings: 320 g/ha, foliage application after 14-day growth, evaluated three weeks after application
Procedure, shortened: as §3

SMILES | herbicidal effect on barnyard grass (H) (barnyard grass [1]) | herbicidal effect on Chinese sprangletop (D) (Chinese sprangletop) | herbicidal effect on rice flat sedge (E) (rice flat sedge) | Herbicidal effect by soil treatment, F: southern crabgrass (southern crabgrass [2]) | Herbicidal effect by soil treatment, G: green foxtail (green foxtail [3]) | Herbicidal effect by soil treatment, H: barnyard grass (barnyard grass [4]) | Herbicidal effect by soil treatment, I: wild oat (wild oat [5]) | Herbicidal effect by soil treatment, J: blackgrass (blackgrass [6]) | Herbicidal effect by soil treatment, K: Italian ryegrass (Italian ryegrass [7]) | Herbicidal effect by soil treatment, L: windgrass (windgrass [8]) | Herbicidal effect by soil treatment, M: velvetleaf (velvetleaf [9]) | Herbicidal effect by soil treatment, N: redroot pigweed (redroot pigweed [10]) | Herbicidal effect by soil treatment, O: lambsquarters (lambsquarters [11]) | Herbicidal effect by soil treatment, P: chickweed (chickweed [12]) | Herbicidal effect by soil treatment, R: persian speedwell (persian speedwell [13]) | herbicidal effect on F: southern crabgrass (evaluation grade 0-5) (southern crabgrass [14]) | herbicidal effect on G: green foxtail (evaluation grade 0-5) (green foxtail [15]) | herbicidal effect on H: barnyard grass (evaluation grade 0-5) (barnyard grass [16]) | herbicidal effect on I: wild oat (evaluation grade 0-5) (wild oat [17]) | herbicidal effect on J: blackgrass (evaluation grade 0-5) (blackgrass [18]) | also measured
COc1ccccc1-c1sc2c(Cl)cccc2c1-c1c(O)c(C)nn(C)c1=O [4-021] | 4 (Herbicidal rate of 70% or more and less than 90%) | 4 (Herbicidal rate of 70% or more and less than 90%) | 5 (Herbicidal rate of 90% or more (almost completely withered)) | 0 (Herbicidal rate of 5% or less (almost no effect)) | 0 (Herbicidal rate of 5% or less (almost no effect)) | 0 (Herbicidal rate of 5% or less (almost no effect)) | 0 (Herbicidal rate of 5% or less (almost no effect)) | 0 (Herbicidal rate of 5% or less (almost no effect)) | 0 (Herbicidal rate of 5% or less (almost no effect)) | 0 (Herbicidal rate of 5% or less (almost no effect)) | 0 (Herbicidal rate of 5% or less (almost no effect)) | 2 (Herbicidal rate of 20% or more and less than 40%) | 1 (Herbicidal rate of 5% or more and less than 20%) | 4 (Herbicidal rate of 70% or more and less than 90%) | 3 (Herbicidal rate of 40% or more and less than 70%) | 1 (Herbicidal rate of 5% or more and less than 20%) | 4 (Herbicidal rate of 70% or more and less than 90%) | 3 (Herbicidal rate of 40% or more and less than 70%) | 0 (Herbicidal rate of 5% or less (almost no effect)) | 0 (Herbicidal rate of 5% or less (almost no effect)) | herbicidal effect on K: Italian ryegrass (evaluation grade 0-5) (Italian ryegrass [19]): 5 (Herbicidal rate of 90% or more (almost completely withered)); herbicidal effect on L: windgrass (evaluation grade 0-5) (windgrass [20]): 5 (Herbicidal rate of 90% or more (almost completely withered)); herbicidal effect on M: velvetleaf (evaluation grade 0-5) (velvetleaf [21]): 2 (Herbicidal rate of 20% or more and less than 40%); herbicidal effect on N: redroot pigweed (evaluation grade 0-5) (redroot pigweed [22]): 1 (Herbicidal rate of 5% or more and less than 20%); herbicidal effect on O: lambsquarters (evaluation grade 0-5) (lambsquarters [23]): 2 (Herbicidal rate of 20% or more and less than 40%); herbicidal effect on P: chickweed (evaluation grade 0-5) (chickweed [24]): 5 (Herbicidal rate of 90% or more (almost completely withered)); herbicidal effect on R: persian speedwell (evaluation grade 0-5) (persian speedwell [25]): 4 (Herbicidal rate of 70% or more and less than 90%)
CCCOc1ccc(-c2sc3c(Cl)cccc3c2-c2c(O)c(C)nn(C)c2=O)cc1 [4-027] | 5 (Herbicidal rate of 90% or more (almost completely withered)) | 0 (Herbicidal rate of 5% or less (almost no effect)) | 0 (Herbicidal rate of 5% or less (almost no effect)) | 0 (Herbicidal rate of 5% or less (almost no effect)) | 0 (Herbicidal rate of 5% or less (almost no effect)) | 0 (Herbicidal rate of 5% or less (almost no effect)) | 0 (Herbicidal rate of 5% or less (almost no effect)) | 0 (Herbicidal rate of 5% or less (almost no effect)) | 0 (Herbicidal rate of 5% or less (almost no effect)) | 0 (Herbicidal rate of 5% or less (almost no effect)) | 0 (Herbicidal rate of 5% or less (almost no effect)) | 4 (Herbicidal rate of 70% or more and less than 90%) | 2 (Herbicidal rate of 20% or more and less than 40%) | 5 (Herbicidal rate of 90% or more (almost completely withered)) | 1 (Herbicidal rate of 5% or more and less than 20%) | 0 (Herbicidal rate of 5% or less (almost no effect)) | 0 (Herbicidal rate of 5% or less (almost no effect)) | 4 (Herbicidal rate of 70% or more and less than 90%) | 0 (Herbicidal rate of 5% or less (almost no effect)) | 3 (Herbicidal rate of 40% or more and less than 70%) | herbicidal effect on K: Italian ryegrass (evaluation grade 0-5) (Italian ryegrass [19]): 1 (Herbicidal rate of 5% or more and less than 20%); herbicidal effect on L: windgrass (evaluation grade 0-5) (windgrass [20]): 3 (Herbicidal rate of 40% or more and less than 70%); herbicidal effect on M: velvetleaf (evaluation grade 0-5) (velvetleaf [21]): 4 (Herbicidal rate of 70% or more and less than 90%); herbicidal effect on N: redroot pigweed (evaluation grade 0-5) (redroot pigweed [22]): 5 (Herbicidal rate of 90% or more (almost completely withered)); herbicidal effect on O: lambsquarters (evaluation grade 0-5) (lambsquarters [23]): 5 (Herbicidal rate of 90% or more (almost completely withered)); herbicidal effect on P: chickweed (evaluation grade 0-5) (chickweed [24]): 5 (Herbicidal rate of 90% or more (almost completely withered)); herbicidal effect on R: persian speedwell (evaluation grade 0-5) (persian speedwell [25]): 5 (Herbicidal rate of 90% or more (almost completely withered))
COc1cc(F)ccc1-c1sc2c(Cl)cccc2c1-c1c(O)c(C)nn(C)c1=O [4-033] | 4 (Herbicidal rate of 70% or more and less than 90%) | 2 (Herbicidal rate of 20% or more and less than 40%) | 3 (Herbicidal rate of 40% or more and less than 70%) | 0 (Herbicidal rate of 5% or less (almost no effect)) | 0 (Herbicidal rate of 5% or less (almost no effect)) | 0 (Herbicidal rate of 5% or less (almost no effect)) | 0 (Herbicidal rate of 5% or less (almost no effect)) | 0 (Herbicidal rate of 5% or less (almost no effect)) | 0 (Herbicidal rate of 5% or less (almost no effect)) | 0 (Herbicidal rate of 5% or less (almost no effect)) | 0 (Herbicidal rate of 5% or less (almost no effect)) | 2 (Herbicidal rate of 20% or more and less than 40%) | 0 (Herbicidal rate of 5% or less (almost no effect)) | 4 (Herbicidal rate of 70% or more and less than 90%) | 4 (Herbicidal rate of 70% or more and less than 90%) | 0 (Herbicidal rate of 5% or less (almost no effect)) | 0 (Herbicidal rate of 5% or less (almost no effect)) | 3 (Herbicidal rate of 40% or more and less than 70%) | 0 (Herbicidal rate of 5% or less (almost no effect)) | 0 (Herbicidal rate of 5% or less (almost no effect)) | herbicidal effect on K: Italian ryegrass (evaluation grade 0-5) (Italian ryegrass [19]): 0 (Herbicidal rate of 5% or less (almost no effect)); herbicidal effect on L: windgrass (evaluation grade 0-5) (windgrass [20]): 1 (Herbicidal rate of 5% or more and less than 20%); herbicidal effect on M: velvetleaf (evaluation grade 0-5) (velvetleaf [21]): 3 (Herbicidal rate of 40% or more and less than 70%); herbicidal effect on N: redroot pigweed (evaluation grade 0-5) (redroot pigweed [22]): 2 (Herbicidal rate of 20% or more and less than 40%); herbicidal effect on O: lambsquarters (evaluation grade 0-5) (lambsquarters [23]): 0 (Herbicidal rate of 5% or less (almost no effect)); herbicidal effect on P: chickweed (evaluation grade 0-5) (chickweed [24]): 5 (Herbicidal rate of 90% or more (almost completely withered)); herbicidal effect on R: persian speedwell (evaluation grade 0-5) (persian speedwell [25]): 5 (Herbicidal rate of 90% or more (almost completely withered))
